Assays:
Histone deacetylase 3 = Histone deacetylase 3 (Homo sapiens, UniProt O15379); assay: Inhibition of HDAC3 (unknown origin) using Ac-LeuGlyLys(Ac)-AMC as substrate preincubated for 5 mins followed by substrate addition and measured after 60 mins by fluorescence based assay
Histone deacetylase 2 = Histone deacetylase 2 (Homo sapiens, UniProt Q92769); assay: Inhibition of HDAC2 (unknown origin) using Ac-LeuGlyLys(Ac)-AMC as substrate preincubated for 5 mins followed by substrate addition and measured after 60 mins by fluorescence based assay
[1] = target: T1, Protein deacetylase HDAC6 (Homo sapiens, UniProt Q9UBN7); assay: Inhibition of HDAC6 (unknown origin) using Ac-LeuGlyLys(Ac)-AMC as substrate preincubated for 5 mins followed by substrate addition and measured after 60 mins by fluorescence based assay
T1 sequence (Q9UBN7 whole entry): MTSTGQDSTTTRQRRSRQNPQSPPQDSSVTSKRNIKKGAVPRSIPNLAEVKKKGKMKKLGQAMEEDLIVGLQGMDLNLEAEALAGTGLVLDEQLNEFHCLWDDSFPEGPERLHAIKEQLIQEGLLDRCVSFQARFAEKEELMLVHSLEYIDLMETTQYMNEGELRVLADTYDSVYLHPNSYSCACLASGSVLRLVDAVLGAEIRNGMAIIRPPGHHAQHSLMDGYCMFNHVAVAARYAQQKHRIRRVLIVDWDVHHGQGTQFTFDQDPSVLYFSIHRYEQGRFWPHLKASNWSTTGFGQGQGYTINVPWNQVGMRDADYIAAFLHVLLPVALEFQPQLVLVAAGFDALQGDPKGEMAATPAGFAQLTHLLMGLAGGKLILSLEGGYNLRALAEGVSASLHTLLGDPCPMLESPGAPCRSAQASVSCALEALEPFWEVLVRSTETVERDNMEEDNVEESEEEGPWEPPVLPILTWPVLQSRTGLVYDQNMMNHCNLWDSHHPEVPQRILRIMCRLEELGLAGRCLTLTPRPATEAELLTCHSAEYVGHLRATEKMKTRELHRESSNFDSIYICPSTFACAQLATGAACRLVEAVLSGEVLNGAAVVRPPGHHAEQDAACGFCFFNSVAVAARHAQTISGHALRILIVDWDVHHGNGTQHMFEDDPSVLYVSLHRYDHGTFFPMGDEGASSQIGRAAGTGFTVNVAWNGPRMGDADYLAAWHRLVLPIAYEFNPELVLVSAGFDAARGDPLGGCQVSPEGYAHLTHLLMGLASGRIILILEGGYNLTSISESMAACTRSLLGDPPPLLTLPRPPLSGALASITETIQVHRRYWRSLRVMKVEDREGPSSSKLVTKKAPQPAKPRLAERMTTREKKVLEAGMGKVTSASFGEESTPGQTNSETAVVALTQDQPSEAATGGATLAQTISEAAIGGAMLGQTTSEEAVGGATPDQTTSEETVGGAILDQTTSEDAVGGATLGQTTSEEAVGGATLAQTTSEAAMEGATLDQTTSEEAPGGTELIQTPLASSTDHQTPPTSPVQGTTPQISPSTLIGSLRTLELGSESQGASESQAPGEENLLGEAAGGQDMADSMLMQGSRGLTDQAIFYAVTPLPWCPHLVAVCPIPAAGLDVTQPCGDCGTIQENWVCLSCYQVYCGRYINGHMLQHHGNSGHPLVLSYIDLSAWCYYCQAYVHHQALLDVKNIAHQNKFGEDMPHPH

Histone deacetylase 9 = Histone deacetylase 9 (Homo sapiens, UniProt Q9UKV0); assay: Inhibition of HDAC9 (unknown origin) using Ac-LeuGlyLys(tfa)-AMC as substrate preincubated for 5 mins followed by substrate addition and measured after 60 mins by fluorescence based assay
[2] = target: T2, Polyamine deacetylase HDAC10 (Homo sapiens, UniProt Q969S8); assay: Inhibition of HDAC10 (unknown origin) using Ac-ArgThr- Lys(Ac)Lys(Ac)-AMC as substrate preincubated for 5 mins followed by substrate addition and measured after 60 mins by fluorescence based assay
T2 sequence (Q969S8 whole entry): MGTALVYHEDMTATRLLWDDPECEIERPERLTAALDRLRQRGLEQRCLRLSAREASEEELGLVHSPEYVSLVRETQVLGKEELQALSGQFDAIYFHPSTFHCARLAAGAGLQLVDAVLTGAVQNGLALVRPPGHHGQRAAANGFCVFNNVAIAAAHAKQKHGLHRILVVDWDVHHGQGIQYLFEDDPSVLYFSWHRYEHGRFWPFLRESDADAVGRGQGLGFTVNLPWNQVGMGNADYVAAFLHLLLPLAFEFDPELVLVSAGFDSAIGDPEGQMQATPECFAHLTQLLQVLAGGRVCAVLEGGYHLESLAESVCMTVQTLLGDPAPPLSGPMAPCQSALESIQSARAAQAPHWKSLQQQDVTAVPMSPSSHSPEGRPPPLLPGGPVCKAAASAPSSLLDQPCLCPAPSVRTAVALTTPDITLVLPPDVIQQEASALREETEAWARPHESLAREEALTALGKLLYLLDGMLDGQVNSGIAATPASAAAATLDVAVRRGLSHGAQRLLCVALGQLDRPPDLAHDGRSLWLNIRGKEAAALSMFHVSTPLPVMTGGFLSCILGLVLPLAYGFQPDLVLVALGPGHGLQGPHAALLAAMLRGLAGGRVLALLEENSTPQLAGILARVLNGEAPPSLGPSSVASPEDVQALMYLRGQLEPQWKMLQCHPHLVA

Histone deacetylase 11 = target: T3, Histone deacetylase 11 (Homo sapiens, UniProt Q96DB2); assay: Inhibition of HDAC11 (unknown origin) using Ac-LeuGlyLys(Ac)-AMC as substrate preincubated for 5 mins followed by substrate addition and measured after 60 mins by fluorescence based assay
T3 sequence (Q96DB2 whole entry): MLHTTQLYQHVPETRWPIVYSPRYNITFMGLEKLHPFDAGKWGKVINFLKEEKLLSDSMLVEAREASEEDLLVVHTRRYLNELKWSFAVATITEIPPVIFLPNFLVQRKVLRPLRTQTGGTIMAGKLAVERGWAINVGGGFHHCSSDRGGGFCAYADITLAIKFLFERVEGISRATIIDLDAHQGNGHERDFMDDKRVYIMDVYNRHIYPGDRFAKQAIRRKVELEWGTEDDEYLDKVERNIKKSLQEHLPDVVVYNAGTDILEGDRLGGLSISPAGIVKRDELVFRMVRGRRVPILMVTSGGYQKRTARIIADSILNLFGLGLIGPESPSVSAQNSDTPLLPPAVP

K562 = assay: Antiproliferative activity against human K562 cells incubated for 48 hrs by MTT assay; format: functional, cell-based; settings: K562, 48 h
HL-60 = assay: Antiproliferative activity against human HL60 cells incubated for 48 hrs by MTT assay; format: functional, cell-based; settings: HL-60, 48 h
RPMI-8226 = assay: Antiproliferative activity against human RPMI8226 cells incubated for 48 hrs by MTT assay; format: functional, cell-based; settings: RPMI-8226, 48 h
A549 = assay: Antiproliferative activity against human A549 cells incubated for 48 hrs by MTT assay; format: functional, cell-based; settings: A549, 48 h

Chain of Histone deacetylase 2 (Q92769 whole entry): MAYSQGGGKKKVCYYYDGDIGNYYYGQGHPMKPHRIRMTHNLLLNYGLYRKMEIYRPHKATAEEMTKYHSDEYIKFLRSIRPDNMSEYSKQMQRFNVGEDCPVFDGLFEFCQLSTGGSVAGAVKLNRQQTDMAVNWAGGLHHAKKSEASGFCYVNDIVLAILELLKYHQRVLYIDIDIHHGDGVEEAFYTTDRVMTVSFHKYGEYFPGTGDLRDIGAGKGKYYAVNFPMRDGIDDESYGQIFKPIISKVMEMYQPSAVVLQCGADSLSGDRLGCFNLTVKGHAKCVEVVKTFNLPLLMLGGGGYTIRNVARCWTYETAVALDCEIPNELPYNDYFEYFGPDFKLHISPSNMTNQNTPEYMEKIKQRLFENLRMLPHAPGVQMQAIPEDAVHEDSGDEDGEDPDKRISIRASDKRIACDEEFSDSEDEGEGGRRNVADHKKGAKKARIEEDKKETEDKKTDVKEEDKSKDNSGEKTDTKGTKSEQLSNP
Chain of Histone deacetylase 9 (Q9UKV0 whole entry): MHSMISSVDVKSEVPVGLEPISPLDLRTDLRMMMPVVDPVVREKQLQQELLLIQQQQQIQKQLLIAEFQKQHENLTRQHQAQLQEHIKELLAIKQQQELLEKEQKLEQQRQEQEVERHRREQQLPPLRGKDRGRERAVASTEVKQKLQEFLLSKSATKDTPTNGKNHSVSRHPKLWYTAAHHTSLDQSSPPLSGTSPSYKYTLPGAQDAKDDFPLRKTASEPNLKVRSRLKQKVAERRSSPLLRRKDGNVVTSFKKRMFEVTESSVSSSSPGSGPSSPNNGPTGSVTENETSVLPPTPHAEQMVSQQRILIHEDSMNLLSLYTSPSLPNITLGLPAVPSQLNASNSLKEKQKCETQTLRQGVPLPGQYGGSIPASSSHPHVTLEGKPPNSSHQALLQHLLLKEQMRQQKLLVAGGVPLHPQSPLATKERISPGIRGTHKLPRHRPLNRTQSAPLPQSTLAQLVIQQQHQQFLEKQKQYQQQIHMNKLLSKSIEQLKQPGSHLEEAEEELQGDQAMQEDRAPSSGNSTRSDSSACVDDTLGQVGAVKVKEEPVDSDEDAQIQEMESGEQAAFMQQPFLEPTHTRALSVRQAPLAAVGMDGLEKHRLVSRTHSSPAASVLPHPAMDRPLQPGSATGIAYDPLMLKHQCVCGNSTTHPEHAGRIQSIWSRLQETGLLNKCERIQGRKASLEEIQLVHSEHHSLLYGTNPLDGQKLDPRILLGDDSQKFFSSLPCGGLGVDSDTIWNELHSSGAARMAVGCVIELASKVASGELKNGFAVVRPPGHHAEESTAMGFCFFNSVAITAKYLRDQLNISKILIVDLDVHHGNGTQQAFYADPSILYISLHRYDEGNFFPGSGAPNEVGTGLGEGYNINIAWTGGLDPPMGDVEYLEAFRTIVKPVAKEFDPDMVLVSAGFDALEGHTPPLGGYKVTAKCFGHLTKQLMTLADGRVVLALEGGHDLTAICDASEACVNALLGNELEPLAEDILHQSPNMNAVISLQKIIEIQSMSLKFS
Chain of Histone deacetylase 3 (O15379 whole entry): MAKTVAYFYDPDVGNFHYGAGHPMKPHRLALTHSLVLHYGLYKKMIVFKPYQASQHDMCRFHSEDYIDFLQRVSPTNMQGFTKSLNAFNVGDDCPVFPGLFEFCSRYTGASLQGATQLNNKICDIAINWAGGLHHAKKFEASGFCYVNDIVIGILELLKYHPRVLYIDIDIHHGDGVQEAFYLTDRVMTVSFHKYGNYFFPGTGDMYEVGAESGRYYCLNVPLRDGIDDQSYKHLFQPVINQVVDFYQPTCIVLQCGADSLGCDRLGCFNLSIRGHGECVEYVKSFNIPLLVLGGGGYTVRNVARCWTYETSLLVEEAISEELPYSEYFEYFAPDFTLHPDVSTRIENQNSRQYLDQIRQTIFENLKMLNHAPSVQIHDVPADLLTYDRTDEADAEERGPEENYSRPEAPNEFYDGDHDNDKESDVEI

| IC50 (Histone deacetylase 3) | IC50 (Histone deacetylase 2) | IC50 [1] | IC50 (Histone deacetylase 9) | IC50 [2] | IC50 (Histone deacetylase 11) | IC50 (K562) | IC50 (HL-60) | IC50 (RPMI-8226) | IC50 (A549) | Compound |
| --- | --- | --- | --- | --- | --- | --- | --- | --- | --- | --- |
| 126 nM | 249 nM | 9.7 nM | 9100 nM | 268 nM | > 100000 nM | 690 nM | 340 nM | 360 nM | 5860 nM | O=C(CCC1C(=O)N(c2ccc(Cl)cc2)C(=O)N1Cc1ccc(Br)cc1)Nc1ccc(C(=O)NO)cc1 (stereo not given) |
| 96 nM | 203 nM | 7.6 nM | 15200 nM | 114 nM | > 100000 nM | 830 nM | 610 nM | 640 nM | 9450 nM | O=C(CCC1C(=O)N(c2ccc(Cl)cc2)C(=O)N1Cc1ccccc1)Nc1ccc(C(=O)NO)cc1 (stereo not given) |
| 235 nM | 277 nM | 4.4 nM | > 100000 nM | 164 nM | > 100000 nM | 490 nM | 250 nM | 230 nM | 790 nM | Cc1ccc(CN2C(=O)N(c3ccc(Cl)cc3)C(=O)C2CCC(=O)Nc2ccc(C(=O)NO)cc2)cc1 (stereo not given) |

Source: ChEMBL document CHEMBL4304789, “Design, Synthesis, and Biological Evaluation of 2,4-Imidazolinedione Derivatives as HDAC6 Isoform-Selective Inhibitors” (ACS Med Chem Lett, 2019)
